The target of data set [1] is T1, human CCK-B receptor (Homo sapiens, UniProt P32239).
T1 construct: expressed in transfected cells; host or cells: HeLa cells (membranes), stably transfected
T1 sequence (P32239 1-447): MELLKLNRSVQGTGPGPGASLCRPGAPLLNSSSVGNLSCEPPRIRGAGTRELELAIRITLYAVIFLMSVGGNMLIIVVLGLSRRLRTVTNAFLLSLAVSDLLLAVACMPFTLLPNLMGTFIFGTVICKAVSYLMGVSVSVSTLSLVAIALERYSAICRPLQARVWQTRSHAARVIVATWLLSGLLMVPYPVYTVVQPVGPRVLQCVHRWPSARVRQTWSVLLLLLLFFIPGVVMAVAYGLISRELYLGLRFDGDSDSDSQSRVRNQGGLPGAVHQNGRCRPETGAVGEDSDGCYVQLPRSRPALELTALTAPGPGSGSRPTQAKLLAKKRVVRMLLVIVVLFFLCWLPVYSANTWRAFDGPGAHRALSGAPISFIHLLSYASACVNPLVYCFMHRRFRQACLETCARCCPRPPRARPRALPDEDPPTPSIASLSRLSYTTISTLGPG
The data set can be described thus: CCK-B receptor binding, transfected HeLa cell membranes, [125I]BH-sCCK-8. The note with it: HeLa cell membranes stably transfected with human CCK-B receptor; 30 pM [125I]BH-sCCK-8. As to the method: Alternatively the binding affinity of compounds of the invention for CCK-A and CCK-B receptors may be determined using HeLa cell membranes that are transfected with the human CCK-B receptor or, COS-M6 cell membranes that are transiently transfected with the human CCK-A receptor.
CCK-B receptor binding studies were carried out using HeLa cell membranes which had been stabily transfected with the human CCK-B receptor cloned from temporal cortex cDNA library.
The transfected HeLa cell membranes were incubated with 30 pM [^125 ]BH-sCCK-8 in the presence of various concentrations of the test compound (1 pM to 1 μM). All experiments were performed in an assay volume of 250 μl. Membranes were harvested onto GF/C glass fibre filter paper (Whatman, UK) by rapid filtration using a Cell Harvester (Brandel model M-24R) and washed three times with HEPES Wash buffer chilled to 4° C. The radioactivity trapped on individual filter discs was counted over 60 seconds using a gamma counter (Mini Gamma counter, LKB, Wallac, Finland) at a counting efficiency of 77%. A control experiment was also carded out in the absence of a test compound.
Analysis of the data was performed by computer-assisted non-linear regression (ALLFIT programmes DeLean et al., 1978;). IC50 values for the test compounds were convened to Ki values using the Cheng & Prussof equation (Ki =IC50 /(1+[L]/KD)) (Cheng and Prussof, 1973).

The subject of data set [2] is gastric acid secretion. The data set can be described thus: gastric acid secretion in the gastrin fistula rat. It is filed as in vivo. Particulars: 0.3 and 1 mg/kg iv. From the text:
(§1) The compounds of the invention are essential non-toxic a theraapeutically active doses.

Data set [3] is described as follows: untoward effects in the gastrin fistula rat. The class given is in vivo. The note with it: 0.3 and 1 mg/kg iv.
Description: as §1

Each structure is given as a SMILES string.

The term Ki denotes a measure of affinity in units of concentration, obtained from inhibition or displacement. High values mean a looser hold on the target, low ones a stronger hold on the target.

On to `O=C(Nc1ccc(F)cc1)NC1C(=O)N(CC(=O)N2CCCC2)c2ccccc2N(C2CCCCC2)C1=O` (single isomer, unassigned) [1 (isomer 2), 1-[1-Cyclohexyl-2,4-dioxo-5-(2-oxo-2-pyrrolidin-1-yl-ethyl)-2,3,4,5-tetrahydro-1H-benzo[b][1.4]diazepin-3-yl]-3-(4-fluoro-phenyl)urea], for which the affinity in data set [1], expressed as Ki, was 7.94 nM.
As to `O=C(Nc1ccc(F)cc1)NC1C(=O)N(CC(=O)N2CCCC2)c2ccccc2N(C2CCCCC2)C1=O` (single isomer, unassigned) [Example 1 (isomer 1), 1-[1-Cyclohexyl-2,4-dioxo-5-(2-oxo-2-pyrrolidin-1-yl-ethyl)-2,3,4,5-tetrahydro-1H-benzo[b][1.4]diazepin-3-yl]-3-(4-fluoro-phenyl)urea], the Ki in data set [1] was 3.16 nM. The gastric acid secretion result in data set [2] was “significally inhibited”. For the same compound, in data set [3], the untoward effects result is listed as “no untoward effects were observed”.
The compound `O=C(Nc1ccc(F)cc1)NC1C(=O)N(CC(=O)N2CCCC2)c2ccccc2N(C2CCCCC2)C1=O` (stereo not drawn) [Example 1, 1-[1-Cyclohexyl-2,4-dioxo-5-(2-oxo-2-pyrrolidin-1-yl-ethyl)-2,3,4,5-tetrahydro-1H-benzo[b][1.4]diazepin-3-yl]-3-(4-fluoro-phenyl)urea] had a Ki in data set [1] of 3.16 nM.
On the same count and under the same terms, as for `O=C(Nc1cccc(C(=O)O)c1)NC1C(=O)N(CC(=O)N2CCCC2)c2ccccc2N(C2CCCCC2)C1=O` (stereo not drawn) [Example 2, 3-{3-[1-Cyclohexyl-2,4-dioxo-5-(2-oxo-2-pyrrolidin-1-yl-ethyl)-2,3,4,5-tetrahydro-1H-benzo[b][1.4]diazepin-3-yl]-ureido}-benzoic acid], the figure is 2 nM.
Compound `O=C(O)Cc1cccc(NC(=O)NC2C(=O)N(CC(=O)N3CCCC3)c3ccccc3N(c3ccccc3F)C2=O)c1` (stereo not drawn) [Example 3, (3-{3-[1-(2-Fluoro-phenyl)-2,4-dioxo-5-(2-oxo-2-pyrrolidin-1-yl-ethyl)-2,3,4,5-tetrahydro-1H-benzo[b][1,4]diazepin-3-yl]-ureido}-phenyl)-acetic acid] gave an inhibitory constant (Ki) in data set [1] of 3.98 nM.
On the same count and under the same terms, as for `CC1(C)CCCN(C(=O)CN2C(=O)C(NC(=O)Nc3cccc(C(=O)O)c3)C(=O)N(c3ccccc3F)c3ccccc32)C1` (stereo not drawn) [Example 4, 3-{3-[1-[2-(3,3-Dimethyl-piperidin-1-yl)-2-oxo-ethyl]-5-(2-fluoro-phenyl)-2,4-dioxo-2,3,4,5-tetrahydro-1H-benzo[b][1,4]diazepin-3-yl]-ureido}-benzoic acid], the figure is 1.58 nM; as for `O=C(Nc1cccc(F)c1)NC1C(=O)N(CC(=O)N2CCCC2)c2ccccc2N(C2CCCCC2)C1=O` (stereo not drawn) [Example 7], 5.01 nM; as for `O=C(Nc1cccc([N+](=O)[O-])c1)NC1C(=O)N(CC(=O)N2CCCC2)c2ccccc2N(C2CCCCC2)C1=O` (stereo not drawn) [Example 8], 2.51 nM.
Still for that read-out and setting: in the case of `O=C(Nc1ccccc1)NC1C(=O)N(CC(=O)N2CCCC2)c2ccccc2N(C2CCCCC2)C1=O` (stereo not drawn) [Example 10] it was 3.98 nM.
Still for that read-out and setting: in the case of `CN(C)c1cccc(NC(=O)NC2C(=O)N(CC(=O)N3CCCC3)c3ccccc3N(C3CCCCC3)C2=O)c1` (stereo not drawn) [Example 12] it was 1 nM.
Consider `O=C(Nc1cccc(-c2nn[nH]n2)c1)NC1C(=O)N(CC(=O)N2CCCC2)c2ccccc2N(c2ccccc2)C1=O` (stereo not drawn) [Example 14], for which the affinity in data set [1] corresponds to a Ki of 3.16 nM.
The same measure, in the same setting: as for `Cc1cccc(NC(=O)NC2C(=O)N(CC(=O)N3CCCC3)c3ccccc3N(c3ccccc3)C2=O)c1` (stereo not drawn) [Example 15], the figure is 1.58 nM; as for `CC1(C)CCCN(C(=O)CN2C(=O)C(NC(=O)Nc3ccc(F)cc3)C(=O)N(c3ccccc3F)c3ccccc32)C1` (stereo not drawn) [Example 20], 2 nM.

(Values after US5585376A, “1,5-benzodiazepine derivatives having CCK and/or gastrin antagonistic activity” (Glaxo Wellcome Inc., priority 1993, dated 1996).)
